According to PMC7822874, “Chemoprotective antimalarials identified through quantitative high-throughput screening of Plasmodium blood and liver stage parasites” (Scientific Reports, 2021):
Where “and” joins values, the source holds several entries; their conditions need not be identical. Equal entries are not always repeated. Where two headings read alike, the source gives them in different places.

Assays:
[1] = test system: P. falciparum Dd2 (clone B2) asexual blood stage parasites; experiment: P. falciparum Dd2 asexual blood stage SYBR Green-I 72 h proliferation assay (qHTS); type: cell-based, Plasmodium falciparum; settings: for Pf ABS Log AC50 (M): averaged P. falciparum asexual blood stage potency, log10 of AC50 in M
[2] = test system: P. berghei-ANKA-GFP-LucCON liver stage parasites in HepG2-A16-CD81EGFP cells; experiment: P. berghei liver stage Pb-Luc assay, Method 1 (UCSD, 1536-well); type: cell-based, Plasmodium berghei; settings: for Average P. berghei 3 µM response( %) / Average P. berghei 1 µM response (%): P. berghei liver stage, averaged response (percent); for Average P. berghei 1 µM response (%): the header list (r8) defines it as the 1 µM dose; for activity at 1 µM / activity at 3 µM / AC50: Plasmodium berghei; for activity at 1 µM / activity at 3 µM: 48 h, average of 2 wells, 1536-well plate; for activity at 1 µM: nominal 1 uM (10 mM stock), […] for 15 mM, 1.2 uM for 12 mM, 2 uM for 20 mM stock; for activity at 3 µM: nominal 3 uM (10 mM stock), 4.5 uM for 15 mM, 3.6 uM for 12 mM, 6 uM for 20 mM stock
[3] = test system: HepG2-A16-CD81EGFP cells; settings: for Average HepG2 3 µM response( %): averaged response (percent)
[4] = test system: luciferase-expressing P. berghei liver stage parasites in HepG2 cells; experiment: Inhibition of liver-stage development assay (ILSDA), Method 2 (WRAIR, 96-well); type: cell-based, Plasmodium berghei; settings: P. berghei liver stage, Method 2, dose response
[5] = test system: Plasmodium falciparum Dd2 asexual blood stage parasites; experiment: microbe, parasite or virus in culture; set-up: species or system Plasmodium falciparum Dd2 in human erythrocytes; single determination (one 11-point concentration-response curve); settings: Plasmodium falciparum, DD2, Erythrocyte, 72 h; read-out: AC50
[6] = test system: T1, Plasmodium falciparum Dd2-attB (parental line), asexual blood stages; experiment: microbe, parasite or virus in culture; set-up: replicate k of 3 (each line is one of three independent assays; the three lines of one compound and parasite line follow each other); settings: n = 1; for Individual replicates / Log AC50 (M): 72 h
T1 construct: Dd2-attB, the isogenic parental line
Outline: (§1)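 Statistics: two-sided Student's t-test between parental and transgenic values, from three independent assays. The transgene encodes a fumarate-dependent DHODH from yeast, independent of the parasite mETC.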

[7] = test system: T2, Plasmodium falciparum Dd2-attB-ScDHODH (transgenic line expressing yeast DHODH), asexual blood stages; experiment: organism not typed; set-up: replicate k of 3 (each line is one of three independent assays; the three lines of one compound and parasite line follow each other); settings: 72 h, n = 1
T2 construct: Dd2-attB-ScDHODH, the transgenic line that expresses yeast DHODH
Outline: as §1

[8] = in vitro; settings: human, HepG2-A16-CD81EGFP cells, uninfected
[9] = HepG2, the header list (r10) describes it as the 1 µM dose
[10] = repeat 1, read-out: Pb-Luc signal, 1 uM, repeat 1
[11] = repeat 2, read-out: Pb-Luc signal, 1 uM, repeat 2
[12] = repeat 3, read-out: Pb-Luc signal, 1 uM, repeat 3
[13] = repeat 1, read-out: Pb-Luc signal, 3 uM, repeat 1
[14] = repeat 2, read-out: Pb-Luc signal, 3 uM, repeat 2
[15] = repeat 3, read-out: Pb-Luc signal, 3 uM, repeat 3
[16] = Method 1, Hill fit, 50% of maximum activity response, read-out: AC50
[17] = Method 1, log10 of molar AC50 from Hill fit, read-out: Log AC50 (converted)

Row | SMILES | Pf ABS Log AC50 (M) [1] [M] | Average P. berghei 3 µM response( %) [2] [%] | Average P. berghei 1 µM response (%) [2] [%] | Average HepG2 3 µM response( %) ([3]; HepG2, 3 µM dose) [%] | Average HepG2 3 µM response( %) [3, 9] [%] | further results
1 | CN(C)c1cc[n+](CC(=O)c2cccs2)cc1 [MLS001207444] | -5.387 | 62 | 89 | 101 | 101 | 
2 | CCCCCC(=O)O[C@]1(C(C)=O)CC[C@H]2[C@@H]3CCC4=CC(=O)CC[C@]4(C)[C@H]3CC[C@@]21C [MLS000028438] | -5.700 | 29 | 85 | 104 | 104 | 
3 | CCCN1C(CC(C)C)=N[S+](=O)([O-])c2cc(NC(=O)c3ccco3)ccc21 [NCGC00473219-01] |  |  |  |  |  | Max Resp (signal direction of the dose response) ([2]; Method 1, Decrease = decreasing P. berghei viability with dose, Increase = increasing signal, Inactive = no dose response): Decrease; activity at 1 µM [2, 10]: 32.3%; activity at 1 µM [2, 11]: 25.4%; activity at 1 µM [2, 12]: 19.9%; activity at 3 µM [2, 13]: 11.9%; activity at 3 µM [2, 14]: 8.91%; activity at 3 µM [2, 15]: 10.7%; AC50 [2, 16]: 631 nM; AC50 [2, 17]: 631 nM; Activity direction (Decrease / Inactive) [4]: Inactive; AC50 [5]: 7500 nM; HepG2 viability signal, 1 uM, repeat 2 [3]: 101.29%; HepG2 viability signal, 3 uM, repeat 2 [3]: 102.75%; Individual replicates / Log AC50 (M) [6]: -6.1986 Log AC50 (M) and -5.7986 Log AC50 (M) and -6.3486 Log AC50 (M); Individual replicates / Log AC50 (M) [7]: -5.5986 Log AC50 (M) and -5.4986 Log AC50 (M) and -5.2486 Log AC50 (M); viability at 48 h, 1 µM [8]: 103%; viability at 48 h, 3 µM [8]: 105%
4 | Br.CCOC(=O)c1c(CSC(=N)N)n(-c2ccc(Br)cc2)c2cc(Br)c(OC(C)=O)cc12 [MLS000595146] | -5.712 | 73 | 88 | 102 | 101 | 
5 | COc1ccc(-c2c3c(nc4sc(C(=O)Nc5ccc(Cl)cc5)c(N)c24)CC(C)(C)CC3=O)cc1 [NCGC00100738] | -6.425 | 90 | 111 | 109 | 104 | 
6 | CCN1CCN(Cc2ccc(NC(=O)c3cc(NC(=O)C(=O)c4c[nH]c5ccccc45)cc(OC)c3)cc2C(F)(F)F)CC1.O=C(O)C(F)(F)F [MLS003105970] | -6.175 | 54 | 132 | 106 | 106 | 
7 | CCN(C(=O)CSc1nc(-c2ccc(C(C)C)cc2)no1)c1ccccc1 [NCGC00127904] | -6.025 | 98 | 117 | 105 | 102 | 
8 | OC(CN1CCN(c2ccccn2)CC1)Cn1c2ccc(Cl)cc2c2cc(Cl)ccc21 (stereo not shown) [MLS000529159] | -5.612 | 77 | 108 | 102 | 102 | 
9 | Oc1ccc(CN2CC(CNc3ccccc3)C3(C2)CN(c2ccccc2)C3)cc1 (stereo not shown) [NCGC00416032-01] |  |  |  |  |  | activity at 1 µM [2, 10]: 52.9%; activity at 1 µM [2, 11]: 59%; activity at 1 µM [2, 12]: 77.5%; activity at 3 µM [2, 13]: 5.3%; activity at 3 µM [2, 14]: 6.04%; activity at 3 µM [2, 15]: 8.95%; AC50 [2, 16]: 1410 nM; AC50 [2, 17]: 1410 nM; Activity direction (Decrease / Inactive) [4]: Inactive; AC50 [5]: 611 nM; HepG2 viability signal, 1 uM, repeat 2 ([3]; nominal 1 uM (10 mM stock), […] for 15 mM, 1.2 uM for 12 mM, 2 uM for 20 mM stock, average of 2 wells, repeat 2): 101.59%; HepG2 viability signal, 3 uM, repeat 2 ([3]; nominal 3 uM (10 mM stock), 4.5 uM for 15 mM, 3.6 uM for 12 mM, 6 uM for 20 mM stock, average of 2 wells, repeat 2): 99.28%; Individual replicates / Log AC50 (M) [6]: -5.9373 Log AC50 (M) and -6.1873 Log AC50 (M); AC50 ([6]; Plasmodium falciparum, DD2, 72 h, read-out: Individual replicates / Log AC50 (converted)): 818 nM; Individual replicates / Log AC50 (M) [7]: -5.6373 Log AC50 (M) and -5.9873 Log AC50 (M); viability at 48 h, 1 µM [8]: 106%; viability at 48 h, 3 µM [8]: 106%
10 | C[C@H]1[C@@H](O)O[C@@H]2O[C@@]3(C)CC[C@H]4[C@H](C)CC[C@@H]1[C@@]24OO3 [dihydroartemisinin, reference compound] |  |  |  |  |  | AC50 ([1]; Plasmodium falciparum, DD2, 72 h, SYBR Green 72 h, read-out: AC50, Dd2 ABS parasites): 2 nM
